Measured values from PMC5507927, “Lybatides from Lycium barbarum Contain An Unusual Cystine-stapled Helical Peptide Scaffold” (Scientific Reports, 2017).
Positions of bridges follow the written chain, without caps; N, C: chain ends. Residues, ends and D or L forms follow the SMILES beside them.

Columns and labels:
trypsin = assay: Enzymatic stability with trypsin (RP-HPLC profile against control); type: in vitro ADME; details: trypsin (1 μL of 0.5 μg/μL), 37 °C, 10 μg peptide in 100 μL 100 mM ammonium bicarbonate buffer pH 7.8, RP-HPLC profile compared with control without trypsin, read-out: peptide not degraded when incubated with trypsin
Procedure: CRPs with a well-defined disulfide core are known for their compact structure and high resistance to heat and enzymatic degradation. This stability is an important characteristic for CRPs as putative bioactive peptides in order for them to survive decoction processes in traditional herbal preparations and to retain both bioavailability and pharmacological effects by oral administration. […] A total of 96% of lyba1 remained after heating in boiling water at 100 °C for 2 h. Similarly, 99% of the peptide remained intact after incubation in 2 M HCl for 3 h, and 99% of the peptide was not degraded when incubated with trypsin for 3 h (Fig. 5).
Figure 5 Stability assays of lybatide, lyba1. (A) Thermal stability of lyba1 incubated at 100 °C for 2 h. (B) Acidic condition stability of lyba1 incubated in 2.0 M HCl […] for […]. […] (D) Stability of lyba1 incubated in human serum for 60 min at 37 °C, DALK was used as a control. The molecular weight of the peak was determined by MALDI-MS. TEXT PRINTED IN THE PICTURE: (A) lyba1: Cald.: 3509; Found: 3509 | (B) lyba1: Cald.: 3509; Found: 3509 | (C) lyba1: Cald.: 3509; Found: 3509 DOUBTS OF THE COPYIST ABOUT THIS PICTURE: lyba1, panels A-C: 'Cald.' and 'Found' are printed with no measure or unit. I took them as molecular weight, but they may be only mass-spectrometric peak identification. […]

[1] = tested on: human umbilical vein endothelial cells (HUVEC-CS, ATCC CRL-2873); assay: MTT cell toxicity assay; type: cell-based; details: overnight incubation, tested up to 100 μM (method section: 0.01-10 μM)
Procedure: (§1) Many CRPs including defensins, thionins and hevein-like peptides display antimicrobial or cytotoxic activity.
(§2) Lybatide lyba1 was tested for its cytotoxicity effect against human umbilical vein endothelial cells (HUVEC-CS, ATCC CRL-2873), monkey kidney epithelial cells (Vero, ATCC CCL-81) and adenocarcinomic human alveolar basal epithelial cells (A549, ATCC CCL-185). Briefly, 1 × 10^4 cells per well in 100 μL were seeded into a 96-well plate (TPP, Switzerland) and incubated overnight. The supernatant was removed, and the cells were washed twice with phosphate buffered saline (PBS; Gibco, USA). The cells were then treated with lyba1 at concentrations 0.01 μM, 0.1 μM, 1 μM, and 10 μM and incubated overnight, with 10% DMSO used as positive control.
(§3) After incubation, MTT was added to the wells and the plate was incubated for 1.5 h at 36.7 °C. Next, 200 μL of 100% DMSO was added, incubated for 2 h, and the absorbance was determined with a microplate reader at 550 nm wavelength.

[2] = tested on: monkey kidney epithelial cells (Vero, ATCC CCL-81); assay: MTT cell toxicity assay; type: cell-based; details: overnight incubation, tested up to 100 μM (method section: 0.01-10 μM)
Procedure: as §1, §2, §3

[3] = tested on: adenocarcinomic human alveolar basal epithelial cells (A549, ATCC CCL-185); assay: MTT cell toxicity assay; type: cell-based; details: overnight incubation, tested up to 100 μM (method section: 0.01-10 μM)
Procedure: as §1, §2, §3

CC[C@H](C)[C@@H]1NC(=O)[C@@H]2CSSC[C@H](NC(=O)[C@H](CO)NC(=O)[C@@H](N)CC(=O)O)C(=O)N[C@@H](CO)C(=O)N[C@@H](CCC(=O)O)C(=O)N[C@@H](Cc3ccc(O)cc3)C(=O)N[C@H]3CSSC[C@@H](C(=O)N4CCC[C@H]4C(=O)N[C@@H](CO)C(=O)O)NC(=O)[C@H](CSSC[C@H](NC(=O)[C@H](CO)NC(=O)[C@H](CC(N)=O)NC(=O)[C@H](CC(N)=O)NC(=O)[C@H](CO)NC3=O)C(=O)N3CCC[C@H]3C(=O)N[C@@H](Cc3ccc(O)cc3)C(=O)N[C@H]3CSSC[C@H](NC(=O)[C@H](CC(C)C)NC(=O)[C@H]([C@@H](C)O)NC(=O)[C@H](Cc4ccc(O)cc4)NC(=O)[C@H](CC(C)C)NC(=O)[C@H](CCCCN)NC(=O)[C@H](CCC(N)=O)NC(=O)CNC(=O)[C@H](CC(=O)O)NC3=O)C(=O)N2)NC(=O)[C@H]([C@@H](C)O)NC(=O)[C@H](CC(N)=O)NC1=O [lyba1] (H-DSCSEYCSNNSCPYCDGQKLYTLCCINTCCPS-OH; disulfide 3-25, 7-30, 12-29, 15-24)
remaining at 3 h, 100 µg/mL (trypsin): 99%
cytotoxic effect [1]: did not display any cytotoxic effect
cytotoxic effect [2]: did not display any cytotoxic effect
cytotoxic effect [3]: did not display any cytotoxic effect
